This note sets out measurements from US12180193B2, “Accelerating fibrosarcoma protein degrading compounds and associated methods of use” (Arvinas Operations, Inc., priority 2020, dated 2024).

The target in assay [1] is T1, BRAF V600E (Homo sapiens, UniProt P15056, V600E).
T1 construct: expressed in transfected cells
Kind of assay: Cellular assay of target protein degradation, T-Rex 293 cells stably transfected with HA-BRAF_V600E (HA immunofluorescence, high content imaging). The note with it: T-Rex 293 HA-BRAF V600E; for DC50: half maximal degradation, read-out: BRaf V600E DC50; for Dmax: maximum degradation observed. The class given is cell-based. A digest of the protocol:
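Doxycycline-induced (1 ng/mL) T-Rex 293 cells expressing HA-BRAF V600E treated 24 h at 37 °C with compound at 1 μM to 0.1 nM final in 0.1% DMSO. Remaining HA-tagged protein quantified by fixed-cell anti-HA immunofluorescence and high-content imaging; DC50 and Dmax (% of control) derived.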

Assay [2] addresses T2, BRAF G466V (Homo sapiens, UniProt P15056, G466V).
T2 construct: expressed in transfected cells
Kind of assay: Cellular assay of target protein degradation, T-Rex 293 cells stably transfected with HA-BRAF G466V (HA immunofluorescence, high content imaging). Type of assay: cell-based. Particulars: T-Rex 293 HA-BRAF G466V; for DC50: half maximal degradation, read-out: BRaf G466V DC50; for Dmax: maximum degradation observed. Summed up:
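Doxycycline-induced (0.75 ng/mL) cells treated 24 h at 37 °C with compound from 30 nM to 3 pM (0.1% DMSO). After fixation and permeabilisation, HA-tagged BRAF G466V immunostained and quantified by high-content imaging. DC50 and Dmax (percent of control) derived.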

One may read the DC50 as the midpoint of the concentration-degradation curve. The Dmax is the greatest extent of degradation seen. Low readings indicate shallow degradation, high ones deep degradation.

T1 sequence (P15056 whole entry V600E): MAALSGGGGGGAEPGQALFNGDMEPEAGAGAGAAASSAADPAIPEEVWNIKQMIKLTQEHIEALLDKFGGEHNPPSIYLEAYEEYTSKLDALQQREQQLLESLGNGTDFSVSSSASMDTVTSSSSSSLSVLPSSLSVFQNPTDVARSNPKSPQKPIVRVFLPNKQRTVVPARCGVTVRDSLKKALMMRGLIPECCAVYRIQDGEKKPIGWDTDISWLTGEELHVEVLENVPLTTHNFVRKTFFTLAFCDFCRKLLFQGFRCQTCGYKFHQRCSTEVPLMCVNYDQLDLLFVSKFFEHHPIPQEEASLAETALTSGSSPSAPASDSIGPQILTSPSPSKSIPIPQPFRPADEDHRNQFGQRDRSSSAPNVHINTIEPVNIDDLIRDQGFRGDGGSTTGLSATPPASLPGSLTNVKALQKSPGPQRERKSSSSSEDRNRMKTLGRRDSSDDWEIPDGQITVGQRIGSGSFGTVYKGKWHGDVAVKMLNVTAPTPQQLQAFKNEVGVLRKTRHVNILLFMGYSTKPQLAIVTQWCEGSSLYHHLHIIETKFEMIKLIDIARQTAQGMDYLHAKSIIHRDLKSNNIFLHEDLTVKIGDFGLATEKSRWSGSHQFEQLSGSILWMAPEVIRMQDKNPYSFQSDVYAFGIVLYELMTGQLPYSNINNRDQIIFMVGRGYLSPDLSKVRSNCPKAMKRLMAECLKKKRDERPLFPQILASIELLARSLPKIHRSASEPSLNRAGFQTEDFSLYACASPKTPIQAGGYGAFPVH
T2 sequence (P15056 whole entry G466V): as the sequence (P15056 whole entry V600E) above, with G466V, E600V counted along it

Take `O=C1CCC(N2Cc3cc(N4CCC(CCCN5CCN(c6ccc(-c7cnc8[nH]cc(C(=O)c9c(F)ccc(NS(=O)(=O)N%10CC[C@@H](F)C%10)c9F)c8c7)cc6)CC5)CC4)ccc3C2=O)C(=O)N1` (stereo partly drawn) [Compound 137, (3R)-N-[3-(5-{4-[4-(3-{1-[2-(2,6-dioxopiperidin-3-yl)-1-oxo-2,3-dihydro-1H-isoindol-5-yl]piperidin-4-yl}propyl)piperazin-1-yl]phenyl}-1H-pyrrolo[2,3-b]pyridine-3-carbonyl)-2,4-difluorophenyl]-3-fluoropyrrolidine-1-sulfonamide]: in assay [1], the DC50 was 5 to 50 nM and the Dmax lay in the range of 35 to 70%. Further, in assay [2], the DC50 was in the range of 1 to 10 nM and the Dmax was above 70%.
Taken in the same sequence, the figures for `O=C1CCC(N2Cc3cc(OCCCOC4CCN(c5ccc(-c6cnc7[nH]cc(C(=O)c8c(F)ccc(NS(=O)(=O)N9CC[C@@H](F)C9)c8F)c7c6)cc5)CC4)ccc3C2=O)C(=O)N1` (stereo partly drawn) [Compound 139, (3R)-N-[3-(5-{4-[4-(3-{[2-(2,6-dioxopiperidin-3-yl)-1-oxo-2,3-dihydro-1H-isoindol-5-yl]oxy}propoxy)piperidin-1-yl]phenyl}-1H-pyrrolo[2,3-b]pyridine-3-carbonyl)-2,4-difluorophenyl]-3-fluoropyrrolidine-1-sulfonamide] were 50 to 500 nM, 35 to 70%, 1 to 10 nM and above 70%.
For `O=C1CCN(c2ccc(C3CCN(CC4CCN(c5ccc(-c6cnc7[nH]cc(C(=O)c8c(F)ccc(NS(=O)(=O)N9CC[C@@H](F)C9)c8F)c7c6)cc5)CC4)CC3)cc2F)C(=O)N1` [Compound 140, (3R)-N-[3-(5-{4-[4-({4-[4-(2,4-dioxo-1,3-diazinan-1-yl)-3-fluorophenyl]piperidin-1-yl}methyl)piperidin-1-yl]phenyl}-1H-pyrrolo[2,3-b]pyridine-3-carbonyl)-2,4-difluorophenyl]-3-fluoropyrrolidine-1-sulfonamide], in that order: 5 to 50 nM, 35 to 70%, below 1 nM and 35 to 70%.
Taken in the same sequence, the figures for `O=C1CCC(N2Cc3cc(CCCN4CC5(C4)CN(c4ccc(-c6cnc7[nH]cc(C(=O)c8c(F)ccc(NS(=O)(=O)N9CC[C@@H](F)C9)c8F)c7c6)cn4)C5)ccc3C2=O)C(=O)N1` (stereo partly drawn) [Compound 141, (3R)-N-(3-{5-[6-(6-{3-[2-(2,6-dioxopiperidin-3-yl)-1-oxo-2,3-dihydro-1H-isoindol-5-yl]propyl}-2,6-diazaspiro[3.3]heptan-2-yl)pyridin-3-yl]-1H-pyrrolo[2,3-b]pyridine-3-carbonyl}-2,4-difluorophenyl)-3-fluoropyrrolidine-1-sulfonamide] were 5 to 50 nM, 35 to 70%, 1 to 10 nM and above 70%.
On to `O=C1CCC(N2Cc3cc(N4CCC(O)(CN5CC6(C5)CN(c5ccc(-c7cnc8[nH]cc(C(=O)c9c(F)ccc(NS(=O)(=O)N%10CC[C@@H](F)C%10)c9F)c8c7)cc5)C6)CC4)ccc3C2=O)C(=O)N1` (stereo partly drawn) [Compound 142, (3R)—N-[3-[5-[4-[6-[[1-[2-(2,6-dioxo-3-piperidyl)-1-oxo-isoindolin-5-yl]-4-hydroxy-4-piperidyl]methyl]-2,6-diazaspiro[3.3]heptan-2-yl]phenyl]-1H-pyrrolo[2,3-b]pyridine-3-carbonyl]-2,4-difluoro-phenyl]-3-fluoro-pyrrolidine-1-sulfonamide], for which, in assay [1], the DC50 lay in the range of 5 to 50 nM and the Dmax was in the range of 35 to 70%. In addition, in assay [2], the DC50 was 1 to 10 nM and the Dmax is above 70%.
On to `O=C1CCC(N2Cc3cc(N4CCC(COCC5CCN(c6ccc(-c7cnc8[nH]cc(C(=O)c9c(F)ccc(NS(=O)(=O)N%10CC[C@@H](F)C%10)c9F)c8c7)cc6)CC5)CC4)ccc3C2=O)C(=O)N1` (stereo partly drawn) [Compound 143, (3R)-N-{3-[5-(4-{4-[({1-[2-(2,6-dioxopiperidin-3-yl)-1-oxo-2,3-dihydro-1H-isoindol-5-yl]piperidin-4-yl}methoxy)methyl]piperidin-1-yl}phenyl)-1H-pyrrolo[2,3-b]pyridine-3-carbonyl]-2,4-difluorophenyl}-3-fluoropyrrolidine-1-sulfonamide], for which the DC50 in assay [1] is 5 to 50 nM; in assay [2], 10 to 30 nM. The results for the maximal degradation (Dmax) in assay [1] and in assay [2] were below 35% and 35 to 70%, respectively.
As for `O=C1CCC(N2Cc3cc(N4CCC(N5CCN(CC6CN(c7ccc(-c8cnc9[nH]cc(C(=O)c%10c(F)ccc(NS(=O)(=O)N%11CC[C@@H](F)C%11)c%10F)c9c8)cc7)C6)CC5)CC4)ccc3C2=O)C(=O)N1` (stereo partly drawn) [Compound 144, (3R)-N-{3-[5-(4-{3-[(4-{1-[2-(2,6-dioxopiperidin-3-yl)-1-oxo-2,3-dihydro-1H-isoindol-5-yl]piperidin-4-yl}piperazin-1-yl)methyl]azetidin-1-yl}phenyl)-1H-pyrrolo[2,3-b]pyridine-3-carbonyl]-2,4-difluorophenyl}-3-fluoropyrrolidine-1-sulfonamide], in assay [1], the DC50 is below 5 nM and the Dmax fell in the range of 35 to 70%. Further, in assay [2], the DC50 was 1 to 10 nM and the Dmax is above 70%.
With `CN(CCN1CCN(c2ccc3c(c2)CN(C2CCC(=O)NC2=O)C3=O)CC1)[C@H]1CC[C@H](Oc2ccc(-c3cnc4[nH]cc(C(=O)c5c(F)ccc(NS(=O)(=O)N6CC[C@@H](F)C6)c5F)c4c3)cc2)CC1` (stereo partly drawn) [Compound 145, (3R)-N-{2,4-difluoro-3-[5-(4-{[(1r,4r)-4-[(2-{4-[2-(2,6-dioxopiperidin-3-yl)-1-oxo-2,3-dihydro-1H-isoindol-5-yl]piperazin-1-yl}ethyl)(methyl)amino]cyclohexyl]oxy}phenyl)-1H-pyrrolo[2,3-b]pyridine-3-carbonyl]phenyl}-3-fluoropyrrolidine-1-sulfonamide], the DC50 is 5 to 50 nM in assay [1] and 1 to 10 nM in assay [2]. The Dmax was 35 to 70% in assay [1] and above 70% in assay [2].
Take `O=C1CCC(N2Cc3cc(N4CCC(CN5CCN(Cc6ccc(-c7cnc8[nH]cc(C(=O)c9c(F)ccc(NS(=O)(=O)N%10CC[C@@H](F)C%10)c9F)c8c7)cc6)CC5)CC4)ccc3C2=O)C(=O)N1` (stereo partly drawn) [Compound 146, (3R)-N-{3-[5-(4-{[4-({1-[2-(2,6-dioxopiperidin-3-yl)-1-oxo-2,3-dihydro-1H-isoindol-5-yl]piperidin-4-yl}methyl)piperazin-1-yl]methyl}phenyl)-1H-pyrrolo[2,3-b]pyridine-3-carbonyl]-2,4-difluorophenyl}-3-fluoropyrrolidine-1-sulfonamide]: in assay [1], the DC50 is 5 to 50 nM and the Dmax was 35 to 70%. Besides, in assay [2], the DC50 fell in the range of 1 to 10 nM and the Dmax was above 70%.
Taken in the same sequence, the figures for `O=C1CCC(N2Cc3cc(CCCN4CC5(C4)CN(c4ncc(-c6cnc7[nH]cc(C(=O)c8c(F)ccc(NS(=O)(=O)N9CC[C@@H](F)C9)c8F)c7c6)cn4)C5)ccc3C2=O)C(=O)N1` (stereo partly drawn) [Compound 147, (3R)-N-(3-{5-[2-(6-{3-[2-(2,6-dioxopiperidin-3-yl)-1-oxo-2,3-dihydro-1H-isoindol-5-yl]propyl}-2,6-diazaspiro[3.3]heptan-2-yl)pyrimidin-5-yl]-1H-pyrrolo[2,3-b]pyridine-3-carbonyl}-2,4-difluorophenyl)-3-fluoropyrrolidine-1-sulfonamide] were 50 to 500 nM, 35 to 70%, 1 to 10 nM and 35 to 70%.
